Assay results published in patent US5010174A, “Novel calcitonin derivative and salt thereof” (Mitsubishi Petrochemical Co., Ltd., priority 1987, dated 1991).

Columns and labels:
[1] = Biological activity (calcitonin activity, MRC U/mg), assayed by the method of Japanese Provisional Patent Publication No. 123500/1985; assay type: in vivo; conditions: for biological activity: method of Japanese Provisional Patent Publication No. 123500/1985; for biological activity, in words, compared with Example 1: measured as in Example 1
Protocol: The crude (Oct^1, Cys(CA)^7)-CCT obtained was dissolved in a 1 M acetic acid (5 mg/ml) and purified by the reverse phase high performance liquid chromatography. Chemcopack ODS-H (trade name, .phi.: 10 mm×250 mm) column produced by Chemco Co. was used, with the eluents employed being water (100) - 10% TFA (1) for the eluent A and water (40)-acetonitrile (60) - 10% TFA (1) for the eluent B, and the elution was effected under the linear concentration gradient from the eluent A to the eluent B. Here, the numerals within bracckets represent volume ratios. The fraction corresponding to (Oct^1, Cys(CA)^7)-CCT was collected and lyophilized to obtain 2.8 mg of white powder. The biological activity of the white powder obtained was assayed according to the method as described in Japanese Provisional Patent Publication No. 123500/1985.

[2] = Stability test: heating in sodium citrate buffer, remaining peptide by reverse phase HPLC; conditions: for Stability (ratio of eluted peak area A after heating to area B without heat treatment): 0.1 M sodium citrate buffer pH 6.0, 10 μg/ml, sealed tube, 80° C., 24 hours, reverse phase HPLC
Protocol: The (Oct^1, Cys(CA)^7)-CCT was dissolved in 0.1 M sodium citrate buffer (pH 6.0) to a concentration of 10 μg/ml. One ml of this solution was left to stand in a sealed tube at 80° C. for 24 hours. By analysis according to the reverse phase HPLC by use of the measurement conditions (1), the eluted peak area A of the remaining (Oct^1, Cys(CA)^7)-CCT was determined. Similarly, the eluted peak area B of the (Oct^1, Cys(CA)^7)-CCT in the sample solution not subjected to the heat treatment was determined, and the ratio of A to B (%) was defined as the index.

Stability (ratio of eluted peak area A after heating to area B without heat treatment) [2] | Substance | biological activity [1] | biological activity, in words, compared with Example 1 [1] | stability, in words, compared with Example 1 ([2]; measured as in Example 1)
– | (Oct^1, Cys(Acm)^7)-ECT | 5400 MRC U/mg | – | –
95% | (Oct^1, Thr^3, Cys(CA)^7)-CCT | 7800 MRC U/mg | – | –
90% | (Oct^1, Ala^3, Cys(CA)^7)-CCT | 6100 MRC U/mg | – | –
82% | (Oct^1, Thr^3, Cys(Acm)^7)-CCT | 7800 MRC U/mg | – | –
95% | (Oct^1, Cys(CA)^7)-CCT | 5400 MRC U/mg | equal to that obtained in Example 1 | –
– | (Oct^1, Cys(Acm)^7)-CCT | 5500 MRC U/mg | – | –
– | (Oct^1, Cys^7)-CCT | – | substantially equal to those of (Oct^1, Cys(CA)^7)-CCT of Example 1 | substantially equal to those of (Oct^1, Cys(CA)^7)-CCT of Example 1
